Measurements taken from patent US20230044979A1, “ANIMAL CELL CULTURING METHOD” (AJINOMOTO CO., INC., priority 2020, published 2023).

Key:
[1] = Stability of L-cysteine derivatives in buffer solution (crystal precipitation by visual observation); type: physicochemical; settings: 58 mM in PBS buffer pH 7.0 to 7.2; for relative stability compared with L-cysteine: 5° C. in the dark; for crystal precipitation, Days 0 / crystal precipitation, Days 3 / crystal precipitation, Days 7 / crystal precipitation, Days 14 / crystal precipitation, Days 21 / crystal precipitation, Days 24: stored at 5° C. in the dark; for crystal precipitation, Days 0: day 0; for crystal precipitation, Days 3: day 3; for crystal precipitation, Days 7: day 7; for crystal precipitation, Days 14: day 14; for crystal precipitation, Days 21: day 21; for crystal precipitation, Days 24: day 24
Description: In this Example, the stability of L-cysteine derivatives in a buffer solution was evaluated.
In the table, “+” to “++++” indicate that crystal precipitation was observed, and the higher the number of “+”, the greater the degree of precipitation.

CHO cells [2] = assay: Effect of addition of L-cysteine derivatives to feed medium on proliferation of CHO cells and antibody production (2); type: cell-based, Chinese hamster; settings: for proliferation performance of cells: 14.5 mM in feed medium, L-cysteine in the feed medium substituted; for proliferation performance of cells / cell count, dependence on concentration: FIG. 4; for IgG production amount: 58.0 mM in feed medium; for IgG production amount / IgG production amount, dependence on concentration: FIG. 5; for cell count, dependence on concentration / IgG production amount, dependence on concentration: 14.5, 29, 58 mM in feed medium
Description: (§1) CELLiST (registered trademark) Basal media (Ajinomoto Co., Ltd.: BASAL3; containing 1.3 mM L-cysteine) was added with LR3-IGF-1 (SIGMA-ALDRICH: I1271-1MG, final concentration of 50 μg/mL) and L-Glutamine (Thermo Fisher SCIENTIFIC: 25030081, final concentration of 6 mM), to prepare a basal medium.
Feed media each containing 82 g/L Cellvento (registered trademark) Feed-210 (Merck: 1.02488.0005), 70 g/L glucose (Wako Pure Chemical Industries, Ltd.: 043-31163), and L-cysteine, Compound 3S, or Compound 3R each at 14.5 mM, 29 mM, or 58 mM were prepared. Separately, a tyrosine concentrate (L-tyrosine disodium salt dihydrate (Merck: 122666-87-9) 74.82 g/L, pH 11.3) was prepared.
A 3 mL-aliquot of a CHO cell suspension adjusted to 3×10^5 cells/mL using the prepared basal medium was seeded into a 6 well plate (CORNING, Cat. No. CLS3471), and cultured for 14 days. The culture was carried out with n=2 for all experimental groups. The culture temperature was 37° C. and the agitation speed was 110 rpm. A 0.18 mL-aliquot of each of the prepared feed media and a 12 μL-aliquot of the tyrosine concentrate were added on days 4, 7, 9, and 11 from the start of the culture. A cell culture broth was sampled on days 4, 7, 9, 11, and 14 from the start of the culture, and the viable cell count was measured using a viable/dead cells autoanalyzer Vi-CELL™ XR (Beckman Coulter), and the antibody production amount on days 11 and 14 from the start of the culture was measured using Octet QK (FORTEBIO).

CHO cells [3] = assay: Effect of addition of L-cysteine derivatives to feed medium on proliferation of CHO cells and antibody production (3); type: cell-based, Chinese hamster; settings: 58 mM in feed medium, 11 days culture, compared to the case without addition of L-cysteine; for cell count: FIG. 6; for antibody production amount: FIG. 7
Description: as §1
Feed media each containing 82 g/L Cellvento (registered trademark) Feed-210 (Merck: 1.02488.0005), 70 g/L glucose (Wako Pure Chemical Industries, Ltd.: 043-31163), and L-cysteine, Compound 4, Compound 8, Compound 9, or Compound 11 each at 58 mM were prepared. In addition, a feed medium without addition of L-cysteine, which only contained 82 g/L Cellvento (registered trademark) Feed-210 and 70 g/L glucose, was prepared. Separately, a tyrosine concentrate (L-tyrosine disodium salt dihydrate (Merck: 122666-87-9) 74.82 g/L, pH 11.3) was prepared.
A 30 mL-aliquot of a CHO cell suspension adjusted to 3×10^5 cells/mL using the prepared basal medium was seeded into 125 mL-volume flasks (CORNING: 431143), and cultured for 11 days. The culture was carried out with n=2 for all experimental groups. The culture temperature was 37° C. and the agitation speed was 110 rpm. A 1.8 mL-aliquot of each of the prepared feed media and a 120 μL-aliquot of the tyrosine concentrate were added on days 4, 7, and 9 from the start of the culture. A cell culture broth was sampled on days 4, 7, 9, and 11 from the start of the culture, and the viable cell count was measured using a viable/dead cells autoanalyzer Vi-CELL™ XR (Beckman Coulter), and the antibody production amount was measured using Octet QK (FORTEBIO).

Row | SMILES | relative stability compared with L-cysteine [1] | crystal precipitation, Days 0 [1] | crystal precipitation, Days 3 [1] | crystal precipitation, Days 7 [1] | crystal precipitation, Days 14 [1] | crystal precipitation, Days 21 [1] | crystal precipitation, Days 24 [1] | proliferation performance of cells (CHO cells [2]) | IgG production amount (CHO cells [2]) | cell count, dependence on concentration (CHO cells [2]) | IgG production amount, dependence on concentration (CHO cells [2]) | cell count (CHO cells [3]) | antibody production amount (CHO cells [3]) | ability to substitute for L-cysteine (CHO cells [2]; in feed medium)
1 | COC(=O)[C@]1(C)N[C@H](C(=O)O)CS1 (stereo in doubt) [Compound 3R, (2RS,4R)-2-methyl-2,4-thiazolidinedicarboxylic acid 2-methyl ester] | more stable than L-cysteine | − | − | − | − | − | − | approximately 70% | equivalent to that of the group adding 14.5 mM or 29.0 mM of L-cysteine hydrochloride monohydrate | increased in a concentration-dependent manner | increased in a concentration-dependent manner |  |  | 
2 | CC(C)OC(=O)C1(C)N[C@H](C(=O)O)CS1 (mixture of isomers) [Compound 4, (2RS,4R)-2-methyl-2,4-thiazolidinedicarboxylic acid 2-i-propyl ester] | more stable than L-cysteine | − | − | − | − | − | − |  |  |  |  | higher than those of the case without addition of L-cysteine | higher than those of the case without addition of L-cysteine | 
3 | COC(=O)[C@@]1(C)N[C@H](C(=O)O)CS1 (stereo in doubt) [Compound 3, (2RS,4R)-2-methyl-2,4-thiazolidinedicarboxylic acid 2-methyl ester] |  |  |  |  |  |  |  |  |  |  |  |  |  | able to substitute for L-cysteine
4 | COC(=O)[C@@]1(C)N[C@H](C(=O)O)CS1 (stereo in doubt) [Compound 3S, (2RS,4R)-2-methyl-2,4-thiazolidinedicarboxylic acid 2-methyl ester] | more stable than L-cysteine | − | − | − | − | − | − | approximately 70% | equivalent to that of the group adding 14.5 mM or 29.0 mM of L-cysteine hydrochloride monohydrate | increased in a concentration-dependent manner | increased in a concentration-dependent manner |  |  | 
5 | COC(=O)C1(CC(C)C)N[C@H](C(=O)O)CS1 (mixture of isomers) [Compound 11, (2RS,4R)-2-i-butyl-2,4-thiazolidinedicarboxylic acid 2-methyl ester] |  |  |  |  |  |  |  |  |  |  |  | decreased | decreased | 
6 | COC(=O)C1(Cc2ccc(O)cc2)N[C@H](C(=O)O)CS1 (mixture of isomers) [Compound 9, (2RS,4R)-2-(4-hydroxyphenyl)methyl-2,4-thiazolidinedicarboxylic acid 2-methyl ester] | more stable than L-cysteine | − | − | − | − | − | − |  |  |  |  | higher than those of the case without addition of L-cysteine | higher than those of the case without addition of L-cysteine | 
7 | CC(C)(C)OC(=O)C1(C)N[C@H](C(=O)O)CS1 (mixture of isomers) [Compound 6, (2RS,4R)-2-methyl-2,4-thiazolidinedicarboxylic acid 2-t-butyl ester] | more stable than L-cysteine | − | − | − | − | − | − |  |  |  |  |  |  | 
8 | CCOC(=O)C1N[C@H](C(=O)O)CS1 (mixture of isomers) [Compound 8, (2RS,4R)-2,4-thiazolidinedicarboxylic acid 2-ethyl ester] | more stable than L-cysteine | − | − | − | − | − | − |  |  |  |  | higher than those of the case without addition of L-cysteine | higher than those of the case without addition of L-cysteine | 
